Reference: patent US20260055120A1, “Bicyclic pyrimidinones as inhibitors of NOX4” (Boehringer Ingelheim International GmbH, priority 2024, published 2026)

Key:
human NOX4 (hNOX4) = human NOX4 (hNOX4) (Homo sapiens (Human), UniProt Q9NPH5); test: NOX4 inhibition assay (HyPerBlu); format: cell-based; details: HEK293 cells overexpressing hNOX4, HyPerBlu
Protocol: NOX4 inhibition is assessed utilizing HEK293 cells stably overexpressing human NOX4 (hNOX4), generating constitutively high levels of hydrogen peroxide (H2O2). Cells are cultured in the Dulbecco's Modified Eagle Medium (DMEM) media containing 4.5 g/L glucose supplemented with 10% fetal calf serum and 250 μg/ml Zeocin in an incubator at 37° C. with 5% CO2. For the assay, cells are seeded in 384 well plates. […] After incubation Lumigen HyPerBlu™ is added and cells are incubated for additional 30 min at 24° C. in a humidified incubator. Next, luminescence is measured using an Envision Multimode Plate reader to determine levels of produced H2O2 in the wells.

NOX4 = NOX4 (Homo sapiens (Human), UniProt Q9NPH5); details: modified human embryonic kidney (HEK) cells, Amplex Red as detecting reagent; read-out: NOX4 IC50 as disclosed in WO2016207785; cited from earlier work
Chain of NOX4 (Q9NPH5 whole entry, species assumed): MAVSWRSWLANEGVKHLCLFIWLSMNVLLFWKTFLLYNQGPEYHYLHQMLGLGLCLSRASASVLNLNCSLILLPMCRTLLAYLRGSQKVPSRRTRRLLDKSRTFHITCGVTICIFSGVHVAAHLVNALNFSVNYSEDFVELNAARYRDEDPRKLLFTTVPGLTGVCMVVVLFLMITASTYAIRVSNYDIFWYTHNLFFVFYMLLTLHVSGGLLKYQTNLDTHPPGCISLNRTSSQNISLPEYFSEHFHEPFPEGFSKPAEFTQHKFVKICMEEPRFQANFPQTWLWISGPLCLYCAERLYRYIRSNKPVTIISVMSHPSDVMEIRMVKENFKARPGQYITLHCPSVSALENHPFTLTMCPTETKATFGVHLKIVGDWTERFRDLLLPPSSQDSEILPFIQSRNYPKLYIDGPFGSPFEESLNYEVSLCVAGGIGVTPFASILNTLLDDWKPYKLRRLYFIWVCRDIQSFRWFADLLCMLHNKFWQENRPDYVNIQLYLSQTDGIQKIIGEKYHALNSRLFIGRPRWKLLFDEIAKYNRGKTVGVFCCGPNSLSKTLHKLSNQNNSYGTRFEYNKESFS
Chain of NOX4 (P13498 2-195 partner, species assumed): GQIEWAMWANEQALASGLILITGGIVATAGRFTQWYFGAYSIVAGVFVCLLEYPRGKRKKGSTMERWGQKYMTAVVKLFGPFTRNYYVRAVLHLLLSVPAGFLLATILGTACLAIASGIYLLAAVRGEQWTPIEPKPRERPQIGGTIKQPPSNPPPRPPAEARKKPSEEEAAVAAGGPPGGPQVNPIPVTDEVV

Chain of human NOX4 (hNOX4) (Q9NPH5 whole entry): as the sequence (Q9NPH5 whole entry, species assumed) above
Chain of human NOX4 (hNOX4) (P13498 2-195 partner): as the sequence (P13498 2-195 partner, species assumed) above

IC50 (human NOX4 (hNOX4)) [µM] | SMILES | IC50 (NOX4) [µM]
79 | O=c1c2ncccc2nc(SCc2ccccc2F)n1-c1ccc(Cl)cc1 [WO2005049613 example 59] | –
– | O=C(Nc1ccc2oc(N3CCC34COC4)nc2c1)c1ccc2c(c1)CCO2 [WO2016207785 example 15] | 0.4
